Results on seven compounds are retold here after ChEMBL document CHEMBL1201862, “PubChem BioAssay data set” (2004).

Among the test systems are 786-0; A498; COLO 205; DU-145; HCT-116; HOP-92; IGROV-1; KM12; MOLT-4; NCI-H522; OVCAR-4; OVCAR-8; PC-3; RXF 393; SF-268; SF-539; SK-MEL-2; SK-MEL-5; SW-620; UO-31.
Test in all cases: NCI anticancer screen, dose series, 48 h

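Five compound concentrations were applied to cells in 96-well plates for 48 hours; endpoints were derived by simple linear interpolation of the resulting dose-response curve. GI50: concentration for 50% inhibition of growth.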 The source made the active and inactive calls. Cut-off read from the data, not from the text of the source: active = GI50 up to about 1.1 µM and inactive = higher. Bounds are passed on as bounds.

In the case of `C=C1CCC2CC1[C@@H](C(=O)c1c[nH]c3ccccc13)NC2(C)C` (stereo not given in full), the GI50 was > 37.5 µM (inactive) in the test with 786-0; > 37.5 µM (inactive) in the test on A498; 35 µM (inactive) with COLO 205; > 37.5 µM (inactive) in the test on DU-145; > 37.5 µM (inactive) in the test on HCT-116; 13.2 µM (inactive) with HOP-92. For the same compound, the GI50 in the test on IGROV-1, in the test on KM12, with MOLT-4, with NCI-H522, in the test on OVCAR-4 and with OVCAR-8 was > 37.5 µM (inactive) each time. The GI50 in the test with PC-3 was 19.5 µM (inactive); with RXF 393, > 37.5 µM (inactive); in the test with SF-268 it was > 37.5 µM (inactive); with SF-539, > 37.5 µM (inactive); with SK-MEL-2, 27.1 µM (inactive); with SK-MEL-5 it was > 37.5 µM (inactive). For the same compound, the GI50 with SW-620 was > 37.5 µM (inactive); with UO-31, 29.5 µM (inactive).

As to `CCC(CC)(CO)CNc1cc(Cl)nc(N)n1`, the GI50 was > 100 µM (inactive) in the test with 786-0; > 100 µM (inactive) with A498; > 100 µM (inactive) with COLO 205; > 100 µM (inactive) in the test with DU-145; > 100 µM (inactive) in the test on HCT-116; 11.3 µM (inactive) in the test with HOP-92. For the same compound, the GI50 with IGROV-1 is > 100 µM (inactive); in the test on KM12 it was > 100 µM (inactive); in the test with MOLT-4, > 100 µM (inactive); in the test on NCI-H522, > 100 µM (inactive); in the test with OVCAR-4 it was 87.9 µM (inactive); in the test with OVCAR-8, > 100 µM (inactive). For the same compound, the GI50 was > 100 µM (inactive) with PC-3; 67.1 µM (inactive) in the test with RXF 393; 55.6 µM (inactive) in the test with SF-268; > 100 µM (inactive) in the test with SF-539; > 100 µM (inactive) with SK-MEL-2; 60.7 µM (inactive) in the test on SK-MEL-5. The GI50 in the test on SW-620 and in the test with UO-31 was > 100 µM (inactive) throughout.

Turning to `N#Cc1c(O)nc2nn3c4ccc5ccccc5c4nnc3c2c1-c1ccc(Cl)cc1`, the GI50 was 2.59 µM (inactive) in the test on 786-0; 1.58 µM (inactive) in the test with A498; 2.24 µM (inactive) with COLO 205; 1.95 µM (inactive) in the test on DU-145; 2.4 µM (inactive) with HCT-116; 2.3 µM (inactive) in the test with HOP-92. For the same compound, the GI50 with IGROV-1 is 1.2 µM (inactive); with KM12, 2.8 µM (inactive); in the test on MOLT-4, 2.4 µM (inactive); in the test with NCI-H522, 1.5 µM (inactive); with OVCAR-4, 3.58 µM (inactive); in the test on OVCAR-8, 2.27 µM (inactive). The GI50 in the test on PC-3 was 2.43 µM (inactive); in the test with RXF 393, 2.01 µM (inactive); in the test with SF-268, 2.51 µM (inactive); in the test on SF-539, 1.96 µM (inactive); in the test on SK-MEL-2 it was 1.9 µM (inactive); with SK-MEL-5 it was 1.92 µM (inactive). Besides, the GI50 in the test with SW-620 was 2.03 µM (inactive); in the test with UO-31, 2.38 µM (inactive).

Consider `N=C(/C=C/c1ccc(-c2cn3cc(/C=C/C(=N)N4CCCC4)ccc3n2)cc1)N1CCCC1`, for which the GI50 with 786-0 is 85.5 µM (inactive); with A498, > 100 µM (inactive); in the test with COLO 205 it was > 100 µM (inactive); with DU-145, 50 µM (inactive); with HCT-116 it was 90.8 µM (inactive); in the test with HOP-92, > 100 µM (inactive). For the same compound, the GI50 in the test on IGROV-1 was > 100 µM (inactive); in the test with KM12, 60.3 µM (inactive); in the test with MOLT-4, > 100 µM (inactive); in the test on NCI-H522, 31 µM (inactive); in the test with OVCAR-4, > 100 µM (inactive); in the test with OVCAR-8 it was 79.1 µM (inactive). The GI50 in the test with PC-3 is > 100 µM (inactive); in the test on RXF 393, 50.6 µM (inactive); in the test on SF-268, > 100 µM (inactive); with SF-539 it was 47.3 µM (inactive); with SK-MEL-2 it was > 100 µM (inactive); in the test on SK-MEL-5, > 100 µM (inactive). Further, the GI50 with SW-620 and with UO-31 was > 100 µM (inactive) throughout.

Regarding `N#Cc1ccc(C(=O)/C=C/c2ccc(O)c(O)c2)cc1`, the GI50 is > 38.4 µM (inactive) in the test on 786-0; 17.7 µM (inactive) in the test on A498; 16.7 µM (inactive) in the test on COLO 205; 16.3 µM (inactive) in the test on DU-145; 10.5 µM (inactive) with HCT-116; 15.5 µM (inactive) with HOP-92. The GI50 is 12.8 µM (inactive) in the test with IGROV-1; 13.9 µM (inactive) with KM12; 8.38 µM (inactive) in the test on MOLT-4; 1.53 µM (inactive) in the test with NCI-H522; 12.4 µM (inactive) in the test on OVCAR-4; > 40.4 µM (inactive) with OVCAR-8. Further, the GI50 is 15.3 µM (inactive) with PC-3; 16.8 µM (inactive) in the test with RXF 393; 14.1 µM (inactive) in the test with SF-268; 15.6 µM (inactive) in the test on SF-539; 17.3 µM (inactive) in the test on SK-MEL-2; 15.2 µM (inactive) in the test with SK-MEL-5. In addition, the GI50 was 13.2 µM (inactive) with SW-620 and 12.4 µM (inactive) with UO-31.

For the compound `NNC(=O)CC(=O)Nc1ccc(S(=O)(=O)c2ccc(NC(=O)CC(=O)NN)cc2)cc1`, the GI50 in the test with 786-0, in the test with A498, in the test with COLO 205, in the test on DU-145, in the test on HCT-116 and with HOP-92 was > 100 µM (inactive) in each case. In addition, the GI50 in the test on IGROV-1, in the test with KM12, in the test with MOLT-4, in the test on NCI-H522, in the test with OVCAR-4 and in the test with OVCAR-8 was > 100 µM (inactive) each time. Further, the GI50 with PC-3, in the test with RXF 393, in the test on SF-268, with SF-539, with SK-MEL-2 and in the test with SK-MEL-5 was > 100 µM (inactive) each time. Besides, the GI50 in the test on SW-620 and in the test with UO-31 was > 100 µM (inactive) in each case.

With `CCCC(=O)Nc1cn(COC)c(C(=O)N2C[C@H]3C[C@@]34C2=CC(=O)c2[nH]cc(C)c24)n1`, the GI50 is 2.79 µM (inactive) in the test with 786-0; 8.63 µM (inactive) in the test on A498; 7.78 µM (inactive) in the test on COLO 205; 1.38 µM (inactive) with DU-145; 4.68 µM (inactive) in the test with HCT-116; 8.05 µM (inactive) in the test with HOP-92. The GI50 with IGROV-1 is 9.93 µM (inactive); in the test on KM12, > 5 µM (inactive); in the test with MOLT-4, 0.553 µM (active); with NCI-H522 it was 1.65 µM (inactive); with OVCAR-4, 9.12 µM (inactive); with OVCAR-8, 2.69 µM (inactive). Further, the GI50 with PC-3 was 12.6 µM (inactive); in the test with RXF 393, 8.2 µM (inactive); in the test on SF-268, 5.12 µM (inactive); with SF-539, 4.98 µM (inactive); with SK-MEL-2, 14 µM (inactive); in the test on SK-MEL-5 it was 4.06 µM (inactive). Moreover, the GI50 in the test on SW-620 was 3.66 µM (inactive); with UO-31 it was 10.6 µM (inactive).
